From BindingDB's records for doi:10.1007/s10822-022-00478-x (Roche Innovation Center Basel, F. Hoffmann-La Roche Ltd., 2022)

Each compound was assayed against cAMP and cAMP-inhibited cGMP 3',5'-cyclic phosphodiesterase 10A (Homo sapiens, UniProt Q9Y233) (assay: PDE10A assay).
In short: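 Scintillation proximity readout of [3H]cGMP hydrolysis (50 nM final substrate, 15 min) by 2 ng/well human PDE10A after 15 min compound preincubation at RT, pH 7.5 with MgCl2. Four-parameter logistic fit gave IC50, reported as pIC50.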

Compared with `CC(=O)Nc1cccc(NC(=O)c2nc(C3CC3)cnc2Nc2cncnc2)n1` [Roche-Dataset for PDE10A, Compound 1084], `CC(=O)c1cc(NC(=O)c2nc(C3CC3)cnc2Nc2cncnc2)ccc1F` [Roche-Dataset for PDE10A, Compound 869] is 2.6-fold lower in IC50: 25 nM for the first, 9.64 nM for the second.

`CNC(=O)c1cc(NC(=O)c2c(C(=O)N3CCC3)cnn2C)nn1C` [Roche-Dataset for PDE10A, Compound 1021] and `Cn1nc(NC(=O)c2c(C(=O)N3CCC3)cnn2C)cc1C(=O)N1CCCCC1` [Roche-Dataset for PDE10A, Compound 941] are the same in IC50: 10000 nM for the first, 10000 nM for the second.

First: CNC(=O)c1nn(C)cc1NC(=O)c1ccc2cc(-c3ccccc3)nn2c1 [Roche-Dataset for PDE10A, Compound 532]
Second: Cc1cc(NC(=O)c2ccc3cc(-c4ccccc4)nn3c2)ccn1 [Roche-Dataset for PDE10A, Compound 384]
The IC50 of the first is 5.6-fold higher: 195 nM for the first, 35 nM for the second. The second is the more potent here.

First: COCCN(C)C(=O)c1cnn(C)c1C(=O)Nc1ccn2cc(-c3ccnc(F)c3)nc2n1 [Roche-Dataset for PDE10A, Compound 147]
Second: CCN(C)C(=O)c1cnn(C)c1C(=O)Nc1ccn2cc(-c3cccc(OCCCF)c3)nc2n1 [Roche-Dataset for PDE10A, Compound 1]
The IC50 of the first is 130-fold higher: 780 nM for the first, 6.05 nM for the second.

Going from `CN(c1nc2cc(NC(=O)c3c(C(=O)N4CCOCC4)cnn3C)ccn2n1)C1CC1` [Roche-Dataset for PDE10A, Compound 418] to `COC1CN(C(=O)c2cnn(C)c2C(=O)Nc2ccn3nc(N4CCOCC4)nc3c2)C1` [Roche-Dataset for PDE10A, Compound 348], the IC50 rises from 2.62 nM to 129 nM (49-fold). The first is the more potent here.

Going from `CN(C)CCNC(=O)c1c(NC(=O)c2nc(C3CC3)cnc2Nc2cncnc2)cnn1C` [US8703768, 313] to `Cc1ccc(NC(=O)c2nc(C3CC3)cnc2Nc2cncnc2)c(C(=O)N(C)C)n1` [US8703768, 276], the IC50 falls from 51 nM to 13 nM (3.9-fold). The second is the more potent here.

Going from `CN(C)C(=O)c1cnn(C)c1C(=O)Nc1ccn2cc(-c3cccc(OCCCF)c3)nc2n1` [Roche-Dataset for PDE10A, Compound 43] to `CCc1nc(CNC(=O)c2cnn(C)c2C(=O)Nc2ccn3cc(-c4ccccc4)nc3n2)cs1` [Roche-Dataset for PDE10A, Compound 601], the IC50 rises from 7.17 nM to 1130 nM (160-fold). The first is the more potent here.

First: CCN(C)C(=O)c1cnn(C)c1C(=O)Nc1ccn2nc(N3CCOCC3)nc2c1 [Roche-Dataset for PDE10A, Compound 315]
Second: Cn1ncc(C(=O)N2C[C@@H]3C[C@H]2CO3)c1C(=O)Nc1ccn2nc(N3CCOCC3)nc2c1 [Roche-Dataset for PDE10A, Compound 193]
The IC50 of the first is 23-fold lower: 5.67 nM for the first, 128 nM for the second.

`CCOC(=O)CCc1ccc(NC(=O)c2nc(C3CC3)cnc2Nc2cncnc2)c(C(=O)NC)c1` [US8703768, 321] and `CNC(=O)c1cc(OC)ccc1NC(=O)c1nc(C2CC2)cnc1Nc1cncnc1` [US8703768, 225] are within 1.5-fold of each other in IC50: 0.59 nM for the first, 0.48 nM for the second.

First: Cc1nc2ccccc2nc1OCc1csc(N2CCOCC2)n1 [Roche-Dataset for PDE10A, Compound 951]
Second: Cn1cc(-c2ccccc2)nc1COc1nc(OC2CCOCC2)c2cc(Cl)ccc2n1 [Roche-Dataset for PDE10A, Compound 100]
The IC50 of the first is 150-fold higher: 2370 nM for the first, 16 nM for the second. The second is the more potent here.

Compared with `Cc1cn2nc(CCc3nc(N4CCCC4)nn3C)nc2cn1` [Roche-Dataset for PDE10A, Compound 678], `Cn1nc(N2CCCC2)nc1CCc1nc2c(C#N)cccn2n1` [Roche-Dataset for PDE10A, Compound 342] is 2-fold lower in IC50: 929 nM for the first, 467 nM for the second.

Compared with `O=C(NCCN1CCc2ccccc2C1=O)c1nc(C2CC2)cnc1Nc1cncnc1` [Roche-Dataset for PDE10A, Compound 451], `O=C(Nc1cccc(N2CCCCC2=O)c1)c1nc(C2CC2)cnc1Nc1cncnc1` [Roche-Dataset for PDE10A, Compound 724] is 12-fold lower in IC50: 574 nM for the first, 46 nM for the second. The second is the more potent here.

Compared with `CCOc1ccccc1-c1cn2c(n1)C[C@H](NC(=O)c1c(C(=O)N3CCC3)cnn1C)CC2` [Roche-Dataset for PDE10A, Compound 251], `Cn1ncc(C(=O)N2CCC2)c1C(=O)N[C@@H]1CCn2cc(-c3ccccc3OC(F)(F)F)nc2C1` [Roche-Dataset for PDE10A, Compound 253] is 20-fold higher in IC50: 2.2 nM for the first, 44 nM for the second.

`CCOC(=O)c1cnn(C)c1C(=O)Nc1ccn2nc(C(C)C)nc2c1` [Roche-Dataset for PDE10A, Compound 761] and `CC(C)c1nc2cc(NC(=O)c3c(C(=O)O)cnn3C)ccn2n1` [Roche-Dataset for PDE10A, Compound 848] are within 1.5-fold of each other in IC50: 1450 nM for the first, 1230 nM for the second.

Compared with `O=C(NC[C@@H]1[C@@H](c2ccccc2)C1(F)F)c1nc(C2CC2)cnc1Nc1cncnc1` [Roche-Dataset for PDE10A, Compound 661], `NS(=O)(=O)c1ccc(CNC(=O)c2nc(C3CC3)cnc2Nc2cncnc2)cc1` [Roche-Dataset for PDE10A, Compound 817] is 2.5-fold lower in IC50: 954 nM for the first, 389 nM for the second. The second is the more potent here.

Going from `COc1ccc2c(=O)n(C)c3c(C)nc(C)n3c2c1` [Roche-Dataset for PDE10A, Compound 1111] to `Cc1cccc(-c2cc(NC(=O)c3c(C(=O)N4CCC4)cnn3C)n[nH]2)n1` [Roche-Dataset for PDE10A, Compound 548], the IC50 falls from 2520 nM to 9.76 nM (260-fold).

Compared with `Cn1ncc(C(=O)N2CCC2)c1C(=O)Nc1ccn(Cc2cn(-c3ccc(Cl)c(Cl)c3)cn2)n1` [Roche-Dataset for PDE10A, Compound 669], `CC(C)Cn1ccc(NC(=O)c2c(C(=O)N3CCC3)cnn2C)n1` [Roche-Dataset for PDE10A, Compound 1055] is 3.2-fold higher in IC50: 80 nM for the first, 258 nM for the second. The first is the more potent here.

Compared with `Cn1ncc2c1C(=O)N(c1ccn3nc(-c4cccc(F)c4)nc3c1)C2=O` [Roche-Dataset for PDE10A, Compound 217], `CC(C)OC(=O)c1c(C(=O)Nc2ccn3nc(-c4ccccc4)nc3c2)cnn1C` [Roche-Dataset for PDE10A, Compound 428] is 3.4-fold lower in IC50: 51 nM for the first, 15 nM for the second. The second is the more potent here.

`O=C(Nc1cnccc1C(=O)N1CC(F)(F)C1)c1nc(C2CC2)ccc1Nc1cncnc1` [Roche-Dataset for PDE10A, Compound 508] and `O=C(Nc1cc(F)c(F)cc1C(=O)N1CCC1)c1nc(C2CC2)cnc1Nc1cncnc1` [US8703768, 291] are within 1.5-fold of each other in IC50: 30 nM for the first, 28 nM for the second.

`CC(C)CNC(=O)c1c(NC(=O)c2c(C(=O)N3CCC3)cnn2C)cnn1C` [Roche-Dataset for PDE10A, Compound 1069] and `CCCCc1cc(NC(=O)c2c(C(=O)N3CCC3)cnn2C)nn1C1CCCC1` [Roche-Dataset for PDE10A, Compound 966] are within 1.5-fold of each other in IC50: 462 nM for the first, 568 nM for the second.

Compared with `Cn1ncc(C(=O)N2CCC2)c1C(=O)Nc1ccn(C2CCCCC2)n1` [Roche-Dataset for PDE10A, Compound 1064], `Cc1cccc(-c2cn3c(n2)C[C@H](NC(=O)c2c(C(=O)N4CCC4)cnn2C)CC3)c1` [Roche-Dataset for PDE10A, Compound 141] is 33-fold lower in IC50: 242 nM for the first, 7.36 nM for the second.

Going from `CCn1nc(-c2ccccn2)cc1NC(=O)c1nc(C2CC2)ccc1Nc1cncnc1` [US8470820, 30] to `O=C(Nc1cc(-c2ccccn2)nn1CC1CCCCC1)c1nc(C2CC2)ccc1Nc1cncnc1` [US8470820, 32], the IC50 falls from 4.73 nM to 1.06 nM (4.5-fold).

First: CCOc1cccc(NC(=O)c2nc(C3CC3)cnc2Nc2cncnc2)c1 [Roche-Dataset for PDE10A, Compound 602]
Second: CN1CCN(c2cccc(NC(=O)c3nc(C4CC4)cnc3Nc3cncnc3)c2)CC1 [Roche-Dataset for PDE10A, Compound 741]
The IC50 of the first is 2.7-fold lower: 26 nM for the first, 71 nM for the second.

Compared with `O=C1c2ccccc2C(=O)N1CCc1nc(-c2ccncc2)no1` [Roche-Dataset for PDE10A, Compound 570], `O=C(Nc1ccn2nc(-c3ccccc3)nc2c1)c1cc(Cl)nc(Cl)c1` [Roche-Dataset for PDE10A, Compound 327] is 310-fold lower in IC50: 11900 nM for the first, 38 nM for the second. The second is the more potent here.

First: CN(C(=O)c1cnn(C)c1C(=O)N[C@@H]1CCn2cc(-c3ccccc3)nc2C1)C1CC1 [Roche-Dataset for PDE10A, Compound 133]
Second: CNC(=O)c1cc2[nH]c(-c3ccccc3)nc2cc1NC(=O)c1ccn(C)n1 [Roche-Dataset for PDE10A, Compound 526]
The IC50 of the first is 26-fold lower: 4.3 nM for the first, 111 nM for the second.

Compared with `COCCCNC(=O)c1nc(C2CC2)cnc1Nc1cncnc1` [Roche-Dataset for PDE10A, Compound 1027], `NS(=O)(=O)c1ccc(CCNC(=O)c2nc(C3CC3)cnc2Nc2cncnc2)cc1` [Roche-Dataset for PDE10A, Compound 569] is 3.1-fold lower in IC50: 944 nM for the first, 300 nM for the second. The second is the more potent here.

First: Cc1cn2nc(C#Cc3nc(N4CCCC4)nn3C)ccc2n1 [US9617271, 67]
Second: Cc1c(Br)cc(C(F)(F)F)c2nc(CCc3nc(N4CCCC4)nn3C)nn12 [Roche-Dataset for PDE10A, Compound 135]
The IC50 of the first is 21-fold higher: 9.21 nM for the first, 0.43 nM for the second. The second is the more potent here.

Compared with `CN(C)C(=O)Cc1csc(NC(=O)c2nc(C3CC3)cnc2Nc2cncnc2)n1` [Roche-Dataset for PDE10A, Compound 775], `CNC(=O)c1ccc(F)cc1NC(=O)c1nc(C2CC2)cnc1Nc1cncnc1` [US8703768, 292] is 19-fold lower in IC50: 13 nM for the first, 0.68 nM for the second.

Going from `O=C(Nc1nnc(-c2ccccn2)o1)c1nc(C2CC2)ccc1Nc1cncnc1` [US8470820, 64] to `O=C(Nc1cc(-c2ccc(Cl)cn2)nn1CCO)c1nc(C2CC2)ccc1Nc1cncnc1` [US8470820, 26], the IC50 falls from 2580 nM to 1.59 nM (1600-fold).

Going from `Cn1nc(-c2ccccn2)cc1NC(=O)c1c(Nc2cncnc2)cc[nH]c1=O` [Roche-Dataset for PDE10A, Compound 711] to `COCc1ccc(Nc2cncnc2)c(C(=O)Nc2cc(-c3ccccn3)nn2CCO)n1` [US8470820, 11], the IC50 falls from 18 nM to 5.24 nM (3.4-fold). The second is the more potent here.

First: COCCNC(=O)c1cc2[nH]c(-c3ccccc3)nc2cc1NC(=O)c1ccnnc1 [Roche-Dataset for PDE10A, Compound 306]
Second: CNC(=O)c1cc2[nH]c(-c3ccccc3)nc2cc1NC(=O)c1cc(C(C)(C)C)nn1C [Roche-Dataset for PDE10A, Compound 650]
The IC50 of the first is 3.3-fold lower: 35 nM for the first, 114 nM for the second.

First: Cc1c(Cl)cc(C(F)(F)F)c2nc(/C=C/c3nc(Br)nn3C)nn12 [Roche-Dataset for PDE10A, Compound 764]
Second: COCCOc1cc(Cl)c(C)n2nc(CCc3nc(N4CCCC4)nn3C)nc12 [Roche-Dataset for PDE10A, Compound 146]
The IC50 of the first is 680-fold higher: 115 nM for the first, 0.17 nM for the second.

`Cc1noc(C(=O)Nc2cc(-c3ccccn3)nn2C)c1Br` [Roche-Dataset for PDE10A, Compound 886] showed an IC50 of 6220 nM.
